Reference: US20110311533A1 (priority 2010, published 2011)

Biological target: PrP (Mus musculus, UniProt P04925)
Type: cell-based

PrP, sequence (P04925 23-230 limits assumed): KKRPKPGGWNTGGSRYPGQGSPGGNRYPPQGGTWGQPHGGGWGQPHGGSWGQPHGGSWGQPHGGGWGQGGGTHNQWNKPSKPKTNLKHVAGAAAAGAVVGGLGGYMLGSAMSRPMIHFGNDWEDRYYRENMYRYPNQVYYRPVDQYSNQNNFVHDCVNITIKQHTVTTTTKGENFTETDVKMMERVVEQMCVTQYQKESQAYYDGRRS

Tunicamycin
PrP glycoform pattern: accumulate the non-glycosilated specie of PrP
